# Assay results taken from patent US5756765A, “2- (2-Substituted pyrrolidin-4-yl) thio-carbapenem derivatives” (Chong Kun Dang Corp., priority 1992, dated 1998).
# Where two headings read alike, the source gives them in different places.
# What was measured:
# [1] = test system: Enterobacter cloacae 1321E; assay: Test 1: In vitro antibacterial activity (MIC), Mueller Hinton Agar dilution; format: cell-based; conditions: read-out: Minimal Inhibitory Concentration (MIC)
# Method: (§1) Test 1: In Vitro Antibacterial Activity Test
# (§2) The compounds of Examples 1,2,3 and 4 according to the present invention were used as a test compound and imipenem was used as a comparative compound.
# (§3) The test compounds and comparative compound were gradually diluted in Mueller Hinton Agar(MHA) medium. Test strains as listed in the following table were inoculated into the medium in an amount of 10^6 viable cells/ml and then incubated at 37° C. for 18 hours. Then, MIC value was measured and expressed in terms of μg/ml.
# [2] = test system: Klebsiella aerogenes 1522E; assay: as above; format: cell-based; conditions: read-out: Minimal Inhibitory Concentration (MIC)
# Method: as §1, §2, §3
# [3] = test system: Salmonella typhimurium; assay: as above; format: cell-based; conditions: Salmonella enterica, read-out: Minimal Inhibitory Concentration (MIC)
# Method: as §1, §2, §3
# [4] = test system: Pseudomonas aeruginosa 9027; assay: as above; format: cell-based; conditions: read-out: Minimal Inhibitory Concentration (MIC)
# Method: as §1, §2, §3
# [5] = test system: Staphylococcus aureus SG 511; assay: as above; format: cell-based; conditions: read-out: Minimal Inhibitory Concentration (MIC)
# Method: as §1, §2, §3
# [6] = test system: Klebsiella oxytoca 1082E; assay: as above; format: cell-based; conditions: read-out: Minimal Inhibitory Concentration (MIC)
# Method: as §1, §2, §3
# [7] = test system: Pseudomonas aeruginosa 1592E; assay: as above; format: cell-based; conditions: read-out: Minimal Inhibitory Concentration (MIC)
# Method: as §1, §2, §3
# [8] = test system: Escherichia coil TEM; assay: as above; format: cell-based; conditions: 18 h, read-out: Minimal Inhibitory Concentration (MIC)
# Method: as §1, §2, §3
# [9] = test system: Escherichia coli DC 2; assay: as above; format: cell-based; conditions: read-out: Minimal Inhibitory Concentration (MIC)
# Method: as §1, §2, §3
# [10] = Test 2: Stability test against kidney dehydrogenase DHP-I; format: in vitro ADME, pig; conditions: kidney dhp-i enzyme; for remaining at 5 min / remaining at 10 min / remaining at 20 min / remaining at 40 min / remaining at 80 min / remaining at 2 h: pig kidney enzyme, 10 mM phosphate buffer, 37° C., read-out: percentage of the remaining amount (stability on DHP-I enzyme); for remaining at 2 h: 120 minutes
# Method: Test 2: Stability Test Against kidney Dehydrogenase DHP-I
# Each of the novel compounds of Examples 1,2,3 and 4 of the present invention and the comparative compound imipenem was dissolved in 10 mM phosphate buffer and the resulting solution was mixed with dehydrogenase enzyme solution extracted from pig kidney in a ratio of equivalent amounts. The resulting mixture was incubated at 37° C. for 2 hours, during which the decomposition degree of the compound was measured. The result thereof was given in the following Table 2 in terms of percentage of the remaining amount on the basis of the initially added amount of the compound.
# [11] = test system: Pseudomonas aeruginosa; conditions: compared with thienamycin; cited from earlier work
# [12] = test system: various bacteria including beta-lactamase producing strains; conditions: compared with thienamycin; cited from earlier work
# [13] = substances produced by DHP-I enzyme decomposition; cited from earlier work
# [14] = test system: DHP-I enzyme present in human kidney; conditions: cited from earlier work
# [15] = test system: gram-positive and gram-negative bacteria; conditions: cited from earlier work
# [16] = test system: dehydrogenase-1(DHP-I enzyme) present in kidney; conditions: cited from earlier work
# [17] = clinically administered; cited from earlier work
# [18] = Enterobacter cloacae 1321E, 10^6 viable cells/ml, 37° C., 18 hours
# [19] = Klebsiella aerogenes 1522E, 10^6 viable cells/ml, 37° C., 18 hours
# [20] = Salmonella typhimurium, 10^6 viable cells/ml, 37° C., 18 hours
# [21] = Pseudomonas aeruginosa 9027, 10^6 viable cells/ml, 37° C., 18 hours
# [22] = SG511, Staphylococcus aureus SG 511, 10^6 viable cells/ml, 37° C., 18 hours
# [23] = Klebsiella oxytoca 1082E, 10^6 viable cells/ml, 37° C., 18 hours
# [24] = Pseudomonas aeruginosa 1592E, 10^6 viable cells/ml, 37° C., 18 hours
# [25] = DC2, Escherichia coli DC 2, 10^6 viable cells/ml, 37° C., 18 hours
SMILES,"MIC [1, 18] [µg/mL]","MIC [2, 19] [µg/mL]","MIC [3, 20] [µg/mL]","MIC [4, 21] [µg/mL]","MIC [5, 22] [µg/mL]","MIC [6, 23] [µg/mL]","MIC [7, 24] [µg/mL]",MIC [8] [µg/mL],"MIC [9, 25] [µg/mL]",remaining at 5 min [10] [%],remaining at 10 min [10] [%],remaining at 20 min [10] [%],remaining at 40 min [10] [%],remaining at 80 min [10] [%],remaining at 2 h [10] [%],also measured
"C[C@@H](O)[C@H]1C(=O)N2C(C(=O)O)=C(S[C@@H]3CN[C@H](CSCC(=O)NCC#N)C3)[C@H](C)[C@H]12 [Example 1, (1R,5S,6S)-2-[(2S,4S)-2-{(cyanomethylcarbamoyl)methylmercaptomethyl}pyrrolidin-4-yl]thio-6-[(R)-1-hydroxyethyl]-1-methyl-1-carbapen-2-em-3-carboxylicacid]",0.05,0.2,0.2,0.1,0.05,0.2,0.78,0.1,0.1,99.7,99.4,99.1,98.1,97.5,97.2,–
"C[C@@H](O)[C@H]1C(=O)N2C(C(=O)O)=C(S[C@@H]3CN[C@H](CSCCC(=O)NCC#N)C3)[C@H](C)[C@H]12 [Example 2, (1R,5S,6S)-2-[(2S,4S)-2-{(cyanomethylcarbamoyl)ethylmercaptomethyl}pyrrolidin-4-yl]thio-6-[(R)-1-hydroxyethyl]1-methyl-1-carbapen-2-em-3-carboxylic acid]",0.05,0.1,0.1,0.78,0.05,0.2,0.78,0.05,0.1,100,99.4,98.6,97.2,96.3,96.3,–
"C[C@@H](O)[C@H]1C(=O)N2C(C(=O)O)=C(S[C@@H]3CN[C@H](CSCCC(=O)NCCO)C3)[C@H](C)[C@H]12 [Example 3, (1R,5S,6S)-2-[(2S,4S)-2-{(hydroxyethylcarbamoyl)ethylmercaptomethyl}pyrrolidin-4-yl]thio-6-[(R)-1-hydroxyethyl]-1-methyl-1-carbapen-2-em-3-carboxylicacid]",0.05,0.1,0.1,0.39,0.05,0.2,0.39,0.05,0.1,99.7,99.2,98.9,98,97.2,97,–
"C[C@@H](O)[C@H]1C(=O)N2C(C(=O)O)=C(S[C@@H]3CN[C@H](CSCCC(=O)NCC(N)=O)C3)[C@H](C)[C@H]12 [Example 4, (1R,5S,6S)-2-[(2S,4S)-2-{(2-carbamoylmethylcarbamoyl)ethylmercaptomethyl}pyrrolidin-4-yl]thio-6-[(R)-1-hydroxyethyl]-1-methyl-1-carbapen-2-em-3-carboxylic acid]",0.05,0.1,0.2,0.1,0.05,0.2,0.78,0.1,0.1,100,99.8,99,99.8,98.8,98.8,–
"C[C@@H](O)[C@H]1C(=O)N2C(C(=O)O)=C(SCCN=CN)C[C@H]12 [Imipenem, (5R, 6S, 8R)-3-[[2-(formimidoylamino)ethyl]thio]-6-(1-hydroxyethyl)-7-oxo-1-azabicyclo[3.2.0]hept-ene-2-carboxylic acid hydrate, reference compound]",–,–,–,–,–,–,–,0.2,–,99.2,97.9,94.3,87.7,77,66.6,"MIC ([1]; Enterobacter cloacae, 1321E, 18 h): 0.2 µg/mL; MIC ([2]; Klebsiella aerogenes, 1522E, 18 h): 0.78 µg/mL; MIC ([3]; TYPHIMURIUM, 18 h): 0.78 µg/mL; MIC ([4]; Pseudomonas aeruginosa, 9027, 18 h): 0.78 µg/mL; MIC ([5]; Staphylococcus aureus, SG511, 18 h): 0.1 µg/mL; MIC ([6]; Klebsiella oxytoca, 1082E, 18 h): 0.39 µg/mL; MIC ([7]; Pseudomonas aeruginosa, 1592E, 18 h): 0.78 µg/mL; MIC ([9]; Escherichia coli, DC2, 18 h): 0.78 µg/mL; antibacterial activity, times stronger than that of thienamycin [11]: 2 to 4 times; antibacterial activity relative to thienamycin, in words [12]: equivalent to, or higher than, that of thienamycin; metabolised at 2 h ([10]; pig, within about 2 hours from beginning of mixing incubation, read-out: decomposition (""was composed by about 40%"")): ~40%; renal toxicity, in words [13]: serious renal toxicity; decomposition by DHP-I, in words [14]: can be readily decomposed by DHP-I enzyme present in human kidney"
"C[C@@H](O)[C@H]1C(=O)N2C(C(=O)O)=C(SCCN)CC12 (stereo partly drawn) [thienamycin, [5R-[5α, 6α(R*)]]-3-[(2-aminoethyl)-thio]-6-(1-hydroxyethyl)-7-oxo-1-azabicyclo[3.2.0]-hept-2-ene-2-carboxylic acid]",–,–,–,–,–,–,–,–,–,–,–,–,–,–,–,"antimicrobial activity, in words [15]: broad and potent antimicrobial activity against gram-positive and gram-negative bacteria; decomposition in vivo by DHP-I, in words [16]: can be readily decomposed in vivo by dehydrogenase-1(DHP-I enzyme) present in kidney; recovery rate in urine [17]: extremely low"
